Type in all cases: functional
Test [1] concerns Mycobacterium tuberculosis. Kind of test: Minimum inhibitory concentration against Mycobacterium tuberculosis resistant clinical isolates.
Test [2] deals with Mycobacterium tuberculosis. In words: Minimum inhibitory concentration against Mycobacterium tuberculosis resistant clinical isolates; Range: 1-4 ug/ml.
Test [3] concerns Mycobacterium tuberculosis. Kind of test: Minimum inhibitory concentration against Mycobacterium tuberculosis resistant clinical isolates; Range:4-16 ug/ml.
For test [4], the system named is Mycobacterium tuberculosis. In words: Minimum inhibitory concentration against Mycobacterium tuberculosis resistant clinical isolates; Range: 8->16 ug/ml.

Molecules are shown by their SMILES. Converted amounts (≈) assume the structure as drawn.

`CC1=C(OCCCCN2CCOCC2)C(C)SC1=O` (stereo not given): in test [1], the MIC is > 16 µg/mL.

Regarding `CC1=C(OCCCCCN2CCOCC2)C(C)SC1=O` (stereo not given), the MIC in test [1] was > 16 µg/mL.

In the case of `COC(=O)CSCCCOC1=C(C)C(=O)SC1C` (stereo not given), the MIC in test [1] was > 16 µg/mL.

Turning to `COC(=O)CSCCCCCOC1=C(C)C(=O)SC1C` (stereo not given), in test [1], the MIC is > 16 µg/mL.

In the case of `CC1=C(OCCCCCCCCBr)C(C)SC1=O` (stereo not given), the MIC in test [1] was > 16 µg/mL.

As for `CC1=C(OCCCCCCBr)C(C)SC1=O` (stereo not given), in test [1], the MIC is > 16 µg/mL.

As for `CC1=C(OCCCCCCCCN2CCOCC2)C(C)SC1=O` (stereo not given), in test [1], the MIC is > 16 µg/mL.

Take `CC1=C(OCCCCCCCCCCN2CCN(C)CC2)C(C)SC1=O` (stereo not given): the minimal inhibitory concentration (MIC) in test [1] is > 16 µg/mL.

Take `CC1=C(OCCCCN2CCN(C)CC2)C(C)SC1=O` (stereo not given): in test [1], the MIC was > 16 µg/mL.

As for `CC1=C(OCCCBr)C(C)SC1=O` (stereo not given), the MIC in test [1] was > 16 µg/mL.

For `COC(=O)CSCCCCCCCCOC1=C(C)C(=O)SC1C` (stereo not given), the MIC in test [2] amounted to 4 µg/mL (≈ 11.1 µM).

With `CC1=C(OCCCN2CCN(C)CC2)C(C)SC1=O` (stereo not given), the MIC in test [1] is > 16 µg/mL.

With `CC1=C(OCCCCCBr)C(C)SC1=O` (stereo not given), in test [1], the MIC was > 16 µg/mL.

In the case of `COC(=O)CSCCCCOC1=C(C)C(=O)SC1C` (stereo not given), in test [1], the MIC was > 16 µg/mL.

`COC(=O)CSCCCCCCOC1=C(C)C(=O)SC1C` (stereo not given): in test [1], the MIC is > 16 µg/mL.

Regarding `CC1=C(OCCCCCN2CCN(C)CC2)C(C)SC1=O` (stereo not given), in test [1], the MIC was > 16 µg/mL.

With `CC1=C(OCCCCBr)C(C)SC1=O` (stereo not given), the MIC in test [1] was > 16 µg/mL.

Turning to `CC1=C(OCCCCCCCCN2CCN(C)CC2)C(C)SC1=O` (stereo not given), in test [1], the MIC was > 16 µg/mL.

For `CC1=C(OCCCCCCCCCCBr)C(C)SC1=O` (stereo not given), in test [3], the MIC was found to be 16 µg/mL (≈ 44 µM).

With `CC1=C(OCCCCCCN2CCN(C)CC2)C(C)SC1=O` (stereo not given), the MIC in test [1] was > 16 µg/mL.

In the case of `CC1=C(OCCCCCCN2CCOCC2)C(C)SC1=O` (stereo not given), in test [1], the MIC was > 16 µg/mL.

On to `CC1=C(OCCCCCCCCCCN2CCOCC2)C(C)SC1=O` (stereo not given), for which the MIC in test [1] was > 16 µg/mL.

Turning to `COC(=O)CSCCCCCCCCCCOC1=C(C)C(=O)SC1C` (stereo not given), in test [1], the MIC was > 16 µg/mL.

`CC1=C(OCCCN2CCOCC2)C(C)SC1=O` (stereo not given): the MIC in test [1] was > 16 µg/mL.

Turning to `NNC(=O)c1ccncc1` [ISONIAZID], in test [4], the MIC was > 16 µg/mL.

The MIC is the smallest concentration in the dilution series that meets the test's criterion for growth inhibition. Read a high MIC as a less susceptible organism.

(Values after ChEMBL document CHEMBL1143512, “Antitubercular agents. Part 2: new thiolactomycin analogues active against Mycobacterium tuberculosis” (2005).)
